Reference: ChEMBL document CHEMBL2073789, “Reversal of P-glycoprotein mediated multidrug resistance by a newly synthesized 1,4-benzothiazipine derivative, JTV-519” (Cancer Lett, 2002)

How the values were obtained:
[1] = molecular target: Multidrug resistance-associated protein 1 (MRP1) (Homo sapiens, UniProt P33527); assay: TP_TRANSPORTER: inhibition of 125I-azidoAG-A photoaffinity labeling (125I-azidoAG-A: 5 uM, JTV-519: 500 uM) in membrane from KB/MRP cells; type: functional, cell membranes, Membrane vesicle; parameters: scale not given: the % may be the effect or the level left; conditions: probe 125I-azidoAG-A (5 uM), read-out: Activity
Chain of Multidrug resistance-associated protein 1 (MRP1) (P33527 whole entry): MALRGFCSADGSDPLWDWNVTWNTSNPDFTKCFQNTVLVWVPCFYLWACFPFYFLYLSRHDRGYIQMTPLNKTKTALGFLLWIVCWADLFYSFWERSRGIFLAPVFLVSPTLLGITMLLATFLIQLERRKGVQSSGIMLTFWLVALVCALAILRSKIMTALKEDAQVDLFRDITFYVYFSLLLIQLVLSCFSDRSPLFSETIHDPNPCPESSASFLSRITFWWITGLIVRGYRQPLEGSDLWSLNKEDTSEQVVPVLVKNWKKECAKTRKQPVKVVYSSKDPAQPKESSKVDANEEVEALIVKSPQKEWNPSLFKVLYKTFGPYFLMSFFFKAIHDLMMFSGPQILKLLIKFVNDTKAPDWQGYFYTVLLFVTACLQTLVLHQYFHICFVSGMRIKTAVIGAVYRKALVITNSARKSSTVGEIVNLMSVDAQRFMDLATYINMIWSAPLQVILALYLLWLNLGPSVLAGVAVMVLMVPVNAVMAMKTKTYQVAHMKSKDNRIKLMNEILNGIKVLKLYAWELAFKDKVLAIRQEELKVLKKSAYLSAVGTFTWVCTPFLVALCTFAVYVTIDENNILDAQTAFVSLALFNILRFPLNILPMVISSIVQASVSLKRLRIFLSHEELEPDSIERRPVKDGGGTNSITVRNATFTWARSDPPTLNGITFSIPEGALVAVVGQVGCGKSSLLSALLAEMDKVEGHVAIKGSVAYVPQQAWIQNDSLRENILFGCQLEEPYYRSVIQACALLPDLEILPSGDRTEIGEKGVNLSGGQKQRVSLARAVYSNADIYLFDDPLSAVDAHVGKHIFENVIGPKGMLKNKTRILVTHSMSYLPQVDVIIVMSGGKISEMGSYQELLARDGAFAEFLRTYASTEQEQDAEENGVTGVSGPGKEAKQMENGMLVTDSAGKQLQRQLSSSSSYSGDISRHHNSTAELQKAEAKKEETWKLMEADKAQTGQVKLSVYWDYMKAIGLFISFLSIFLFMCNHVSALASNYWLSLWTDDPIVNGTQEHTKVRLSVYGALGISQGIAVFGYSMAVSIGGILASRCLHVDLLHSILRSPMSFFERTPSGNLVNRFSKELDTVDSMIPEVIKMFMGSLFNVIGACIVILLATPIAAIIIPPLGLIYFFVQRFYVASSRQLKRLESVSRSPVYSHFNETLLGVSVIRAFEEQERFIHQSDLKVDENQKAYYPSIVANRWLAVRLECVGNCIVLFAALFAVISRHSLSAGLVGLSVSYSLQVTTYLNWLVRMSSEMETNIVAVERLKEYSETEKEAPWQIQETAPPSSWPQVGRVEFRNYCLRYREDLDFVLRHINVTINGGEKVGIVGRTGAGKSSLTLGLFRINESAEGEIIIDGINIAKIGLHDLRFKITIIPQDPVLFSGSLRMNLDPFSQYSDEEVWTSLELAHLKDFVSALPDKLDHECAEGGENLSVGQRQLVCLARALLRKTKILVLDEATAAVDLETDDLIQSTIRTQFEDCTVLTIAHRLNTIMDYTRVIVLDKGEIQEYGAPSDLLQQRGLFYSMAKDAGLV

[2] = molecular target: ATP-dependent translocase ABCB1 (Homo sapiens, UniProt P08183); assay: TP_TRANSPORTER: inhibition of Adriamycin efflux (Adriamycin: 10 uM, JTV-519: 10 uM) in K562/MDR cells; type: functional, cell-based
Chain of ATP-dependent translocase ABCB1 (P08183 whole entry): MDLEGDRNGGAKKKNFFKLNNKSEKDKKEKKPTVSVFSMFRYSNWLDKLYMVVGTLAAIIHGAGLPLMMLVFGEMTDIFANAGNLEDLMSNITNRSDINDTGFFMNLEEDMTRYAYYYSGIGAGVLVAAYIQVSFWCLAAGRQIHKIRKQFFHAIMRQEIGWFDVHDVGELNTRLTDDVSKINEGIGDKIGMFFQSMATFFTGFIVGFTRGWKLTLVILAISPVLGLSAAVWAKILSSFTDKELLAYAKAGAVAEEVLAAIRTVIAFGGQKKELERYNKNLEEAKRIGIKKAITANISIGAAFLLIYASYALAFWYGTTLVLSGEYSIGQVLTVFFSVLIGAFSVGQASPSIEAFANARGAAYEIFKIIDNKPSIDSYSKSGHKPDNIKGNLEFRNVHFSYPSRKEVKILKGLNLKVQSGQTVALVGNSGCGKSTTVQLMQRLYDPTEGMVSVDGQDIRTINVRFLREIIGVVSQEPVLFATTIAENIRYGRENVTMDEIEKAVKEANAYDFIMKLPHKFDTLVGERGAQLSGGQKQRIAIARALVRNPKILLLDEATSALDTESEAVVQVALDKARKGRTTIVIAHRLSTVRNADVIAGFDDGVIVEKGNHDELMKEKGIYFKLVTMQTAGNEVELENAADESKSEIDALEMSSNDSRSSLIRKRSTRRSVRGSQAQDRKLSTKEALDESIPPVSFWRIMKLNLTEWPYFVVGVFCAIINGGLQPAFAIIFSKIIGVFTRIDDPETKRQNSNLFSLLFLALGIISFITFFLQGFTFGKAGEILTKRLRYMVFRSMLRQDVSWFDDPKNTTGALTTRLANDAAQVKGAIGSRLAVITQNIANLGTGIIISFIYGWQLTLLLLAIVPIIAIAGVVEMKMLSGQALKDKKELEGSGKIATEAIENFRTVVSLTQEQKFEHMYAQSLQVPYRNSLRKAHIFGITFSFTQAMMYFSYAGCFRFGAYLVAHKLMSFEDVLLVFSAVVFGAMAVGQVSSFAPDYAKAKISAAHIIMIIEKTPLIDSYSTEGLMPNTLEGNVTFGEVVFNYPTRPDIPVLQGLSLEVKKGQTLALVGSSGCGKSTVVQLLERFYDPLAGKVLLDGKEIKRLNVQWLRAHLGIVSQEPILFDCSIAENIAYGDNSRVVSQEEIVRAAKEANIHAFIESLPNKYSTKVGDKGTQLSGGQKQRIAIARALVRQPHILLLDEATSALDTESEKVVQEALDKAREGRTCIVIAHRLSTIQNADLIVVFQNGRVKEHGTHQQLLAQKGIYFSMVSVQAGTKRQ

activity at 500 µM [1]: 58%
Activity [2]: inhibitor [+]
SMILES: COc1ccc2c(c1)CN(C(=O)CCN1CCC(Cc3ccccc3)CC1)CCS2
